Data on two compounds can be found in US7375098B2, “8β-vinyl-11β-(ω-substituted)alkyl-estra-1,3,5(10)-trienes” (Schering A.G., priority 2003, dated 2008).

Data set [1] is described as follows: Solubility Sw (turbidimetry). The settings on record: pH 7.4 at 25° C.
Data set [2] in a line: Distribution coefficient log D (HPLC method).
The target in the next data set is T1, ERα (Homo sapiens, UniProt P03372).
T1 construct: pSG5-ERα/β FL (Heg0/ERβ0); expressed in transfected cells; host or cells: U-20S (U-2 OS) cells, transient transfection with FuGENE 6
T1 sequence (P03372 1-595): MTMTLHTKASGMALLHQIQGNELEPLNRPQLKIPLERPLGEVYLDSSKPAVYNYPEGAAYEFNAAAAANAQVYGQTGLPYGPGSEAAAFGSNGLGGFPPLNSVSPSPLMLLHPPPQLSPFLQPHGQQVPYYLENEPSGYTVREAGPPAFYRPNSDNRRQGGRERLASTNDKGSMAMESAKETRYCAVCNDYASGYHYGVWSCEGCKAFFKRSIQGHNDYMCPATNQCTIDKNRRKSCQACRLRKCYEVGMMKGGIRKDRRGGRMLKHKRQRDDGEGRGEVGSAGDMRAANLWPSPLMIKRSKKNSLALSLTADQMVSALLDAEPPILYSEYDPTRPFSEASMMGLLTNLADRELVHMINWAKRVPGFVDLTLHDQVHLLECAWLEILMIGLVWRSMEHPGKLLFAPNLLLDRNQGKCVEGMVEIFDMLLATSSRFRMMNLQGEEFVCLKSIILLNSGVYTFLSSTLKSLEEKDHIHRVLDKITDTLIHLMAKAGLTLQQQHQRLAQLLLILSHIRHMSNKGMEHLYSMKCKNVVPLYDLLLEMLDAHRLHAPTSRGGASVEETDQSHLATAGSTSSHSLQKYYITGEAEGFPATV
Put plainly: Transactivation test for estrogenic agonists and antagonists, ERα, U-20S cells, luciferase reporter. The data set is classed as cell-based. The settings on record: U-20S cells. The procedure:
(§1) Transactivation Test for Estrogenic Agonists and Antagonists Cultivation of Cells:
(§2) The resuspension of the cells is carried out in 10 ml of D-MEM+5% CCS+PSG.
(§3) Dissemination of 100 μl of cell suspension (1×10^4 cells) per well. 6 hours after the dissemination, the transfection takes place.
(§4) The ERβα-expression plasmid (HEGO) that was used was amplified in E. coli DH5α (Invitrogen Company). The ERβ-expression plasmid (ERβ0) that was used was produced in-house and amplified in E. coli DH5α. As in the case of the ERα, the expression plasmid pSG5 was used. As a reporter plasmid, the vector pBL-LUC^+ was provided with two Tandem-EREs (estrogen-responsive elements of the vitellogenin promoter) and amplified in E. coli (XL1-Blue; Stratagene Company).
(§5) The latter are first diluted separately in a suitable volume of DMEM and incubated, before the solutions are combined and again incubated.
(§6) Incubation of solutions A and B for 5 minutes at room temperature (RT). Then solution B to be added drop by drop to solution A and mixed. Incubation of solution AB for 15 minutes at room temperature.
(§7) Dilution of the transfection mixture AB for 4 plates with 22.5 ml of D-MEM+5% CCS+PSG. […] Only 60 wells are transfixed per plate; the outside wells receive only medium.
(§8) The 10^−3M DMSO solutions are stored at −20° C. and must be readily dissolved before the removal (15 minutes, 37° C.).
(§9) The dilution stages are selected such that the final concentrations on the test plate for agonism lie in the range of 10^−7-10^−12M (for E2: 10^−8-10^−13M).
(§10) All dilution stages thus contain 1% DMSO.
(§11) After the transfection, the transfection medium is replaced by 180 μl of D-MEM+5% CCS+PSG per well.
(§12) To test for antagonism, the cells are treated in addition with estradiol. Then, 20 μl of the substance dilutions is pipetted through. The negative controls receive 20 μl of DMEM+1% DMSO per well. The final test substance concentrations are 3×10^−11 M for ERα or 3×10^−10 M for ERβ.
(§13) After the medium is suctioned off, in each case 30 μl of lysis 1× reagent (Promega; #E1531) is added to the cells and incubated for ½ hour-1 hour at room temperature while being shaken vigorously (IKA-VIBRAX-VXR, 600 rpm).
(§14) The evaluation of the measurement data is carried out by means of software assigned by the equipment manufacturer (BioLinx). […] A calculation of EC50, the efficacy and the EMR value for the agonism or the IC50 and the efficacy for the antagonism is possible by means of “MTS” software (Table 2).
(In general: A reporter such as luciferase makes a cellular process visible.)

Another data set addresses T2, ERβ (Homo sapiens, UniProt Q92731).
T2 construct: pSG5-ERα/β FL (Heg0/ERβ0); expressed in transfected cells; host or cells: U-20S (U-2 OS) cells, transient transfection with FuGENE 6
In words: Transactivation test for estrogenic agonists and antagonists, ERβ, U-20S cells, luciferase reporter. The data set is classed as cell-based. The procedure:
as §1, §2, §3, §4, §5, §6, §7, §8, §9, §10, §11, §12, §13, §14

A word on the Log D: it is lipophilicity at a set pH, counting ionised and neutral species. As a reminder, the chromatographic logD is a lipophilicity value derived from retention on a column.

Each structure is given as a SMILES string.

T2 sequence (Q92731 whole entry, species assumed): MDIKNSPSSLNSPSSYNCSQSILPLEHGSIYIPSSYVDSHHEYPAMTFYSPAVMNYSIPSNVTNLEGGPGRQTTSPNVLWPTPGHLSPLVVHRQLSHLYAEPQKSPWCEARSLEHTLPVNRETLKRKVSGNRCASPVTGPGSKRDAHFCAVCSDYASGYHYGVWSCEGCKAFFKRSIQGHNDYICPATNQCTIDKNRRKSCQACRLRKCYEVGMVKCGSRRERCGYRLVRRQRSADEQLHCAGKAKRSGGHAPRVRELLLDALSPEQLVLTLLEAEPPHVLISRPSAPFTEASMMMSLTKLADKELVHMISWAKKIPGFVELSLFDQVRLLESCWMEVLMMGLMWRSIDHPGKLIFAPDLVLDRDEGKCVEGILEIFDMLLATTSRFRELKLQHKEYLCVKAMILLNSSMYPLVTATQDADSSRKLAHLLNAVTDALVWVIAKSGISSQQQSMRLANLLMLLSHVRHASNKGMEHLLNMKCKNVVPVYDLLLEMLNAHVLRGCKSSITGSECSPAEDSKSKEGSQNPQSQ

Regarding `C[C@]12CC[C@@H]3c4ccc(O)cc4C[C@@H](CCCCCCCCC[S+]([O-])CCCC(F)(F)C(F)(F)F)[C@H]3[C@@H]1CC[C@@H]2O` (some centres unmarked) [Ref.^1, fulvestrant, reference compound], the Sw in data set [1] is listed as under 1 mg/I. Also, in data set [2] (HPLC method, pH: 7.0, 25° C.), the pH-dependent lipophilicity (Log D) is listed as 5.31.

Take `C=C[C@@]12CCc3cc(O)ccc3C1[C@@H](CCCCC[C@H](O)C(F)(F)C(F)(F)C(F)(F)F)C[C@@]1(C)C2CC[C@@H]1O` (mixture of isomers) [22b D1/2, 11β-[(R/S)-9,9,9,8,8,7,7-Heptafluoro-6-hydroxynonyl]-8-vinyl-estra-1,3,5(10)-triene-3,17β-diol]: the “Efficacy[%] ERα” value at ERα (luciferase activity) came to 90%. For the same compound, the “EMR (EC50 )[%] ERα” value on ERα (potency relative to reference fulvestrant = 100) stood at 1.6%. Also, the “EMR (EC50 )[%] ERβ” value on ERβ (U-20S cells, potency relative to reference = 100) stood at 29%. Also, the Emax at ERβ (read-out: Efficacy[%] ERβ) stood at 100%. The same compound came in with a Sw in data set [1] of 7 mg/I. Also, the chromatographic logD in data set [2] (pH 7) was determined as 5.1.
